The values below are quoted from earlier work in the CATMoS acute toxicity set (Mansouri et al. 2021).

Where “and” joins values, the source holds several entries; their conditions need not be identical. Equal values may be shown once.

A short description of the series: rat acute oral toxicity. As to conditions: in vivo. The text has this: […]The data set underlying the modeling effort for this project was initially compiled by NICEATM and U.S. EPA’s CCTE. Briefly, LD50 data were collected from rat acute oral systemic toxicity tests, including limit tests, ranges/confidence intervals, and discrete LD50 values. The full data set included 21,200 LD50 entries for 15,688 substances. […] Data were reviewed to ensure that LD50 values with obvious errors in the extracted data such as unit conversion errors (e.g., comma and decimal separator misplacements) were either fixed or removed. After this review, 16,209 LD50 values remained. Many of the chemicals represented had multiple LD50 entries, requiring that a single representative value per Chemical Abstracts Service Registry Number (CASRN) identifier be defined to facilitate modeling efforts. Based on ATWG feedback and to define the representative LD50 as a protective value while accounting for the distribution across multiple LD50s, the median of the lowest quartile was computed using only discrete LD50 values (omitting limit test data and range and confidence interval data). A detailed summary of the data compilation is available online on the NICEATM webpage dedicated to the collaborative modeling project (NTP 2020).
[…][…] For categorical designations, limit test and range/confidence interval LD50 data were integrated wherever possible. As such, the number of chemicals with end point values/calls varies across the modeling end points (Table 3) based on whether chemicals had representative LD50 values and/or other data. If a chemical had both, the representative value was used to determine categorical calls rather than limit test data. Some data were useable only for certain end points and categories depending on the thresholds. For example, ranges that spanned multiple hazard categories were considered only for the binary (very toxic/nontoxic) end points and omitted from rendering a determination for hazard category assignment.
[…]The final data set comprising 11,992 chemicals was split into training and evaluation sets […], respectively. This process was performed semirandomly by ordering chemicals based on the five end points (categorical and continuous LD50 values) and partitioning every fourth record into the evaluation set accordingly. This approach was taken to ensure an equivalent distribution of the LD50 values and the different hazard categories between the training and the evaluation sets without supervised sampling of the chemicals based on structures (Figure 1A). The sources of the chemical structures were also kept equivalent between the two sets, with chemical structures obtained from DSSTox, being the highest quality, representing over 75% of each set (Figure 1B).
As for `CC1(C)CCC(NC(=O)[C@@H](N)CCC(=O)O)CC1`, the median lethal dose (LD50) (usually the dose at which mortality reaches 50%) was 1430 mg/kg.
Consider `CC(C)(Oc1ccc(C(=O)c2ccc(Cl)cc2)cc1)C(=O)O`, for which the LD50 was 1240 mg/kg.
Take `C[C@]12CCC(=O)C=C1C=C[C@@H]1[C@@H]2CC[C@@]2(C)[C@H]1CC[C@@]2(O)CCC(=O)O`: the LD50 is 650 mg/kg.
For `COP(=S)(OC)SCn1nc(Br)ccc1=O`, the LD50 was 3.75 mg/kg.
`CCc1ccc(C)cc1`: the LD50 was 4850 mg/kg.
Turning to `COP(=O)(OC)C(OC(=O)CCl)C(Cl)(Cl)Cl` (stereo not drawn), the LD50 is 344 mg/kg.
With `OCCCCC(O)CO` (stereo not drawn), the LD50 is 15500 mg/kg.
Take `CCN(CC)c1ccc(C=O)c(O)c1`: the LD50 was 2260 mg/kg.
In the case of `CN(CCc1ccccc1)N=O`, the LD50 was 48 mg/kg.
Consider `Nc1nccs1`, for which the LD50 is 480 mg/kg.
Consider `CC(C)c1nnc(NS(=O)(=O)c2ccc(N)cc2)s1`, for which the LD50 is 3940 mg/kg.
As to `CCOC(C1=NCC(C)(C)CN1)c1ccccc1Cl` (stereo not drawn), the LD50 was 310 mg/kg.
With `CC(O)C(c1ccc2c(c1)OCO2)N1CCOCC1` (stereo not drawn), the 50% lethal dose (LD50) was 2470 mg/kg.
Regarding `Cn1c(=O)c2c(ncn2CCCCN2CCN(c3ccc(F)cc3)CC2)n(C)c1=O`, the LD50 was 353 mg/kg.
For the compound `FCCOC(Cl)C(Cl)(Cl)Cl` (stereo not drawn), the LD50 is 18 mg/kg.
`COP(=O)(SC)SC`: the LD50 was 26 mg/kg.
As to `CN(C)C(=O)Nc1ccc(Cl)cc1`, the LD50 is 1050 mg/kg.
In the case of `CCCCC(C)(C)[C@H](O)C=C[C@H]1[C@H](C)CC(=O)[C@@H]1CC=CCCCC(=O)O`, the median lethal dose (LD50) was 22 mg/kg.
Turning to `COc1cccc([C@]2(O)CCCC[C@H]2CN(C)C)c1` (single isomer, unassigned), the LD50 is 228 mg/kg.
In the case of `CC(C)NC1CCC(c2ccccc2)(c2ccccc2)CC1`, the LD50 was 623 mg/kg.
For the compound `COP(=S)(OC)Oc1ccc(S(C)(=O)=O)c(C)c1`, the LD50 was 125 mg/kg.
As for `CNCCC#N`, the LD50 was 2260 mg/kg.
Consider `CCOCCOC(=O)C(C)Oc1ccc(Oc2ncc(C(F)(F)F)cc2Cl)cc1` (stereo not drawn), for which the LD50 is 518 mg/kg.
Regarding `Cc1cccc(C)c1Nc1ncccc1C(=O)O`, the LD50 is 2.3 mg/kg.
For `CCOC(=O)C(SP(=O)(OC)SC)c1ccccc1` (stereo not drawn), the LD50 is 250 mg/kg.
Take `CCOP(=O)(OCC)Sc1c(Cl)c(Cl)c(Cl)c(Cl)c1Cl`: the LD50 is 925 mg/kg.
`CC(C)(C)C(=O)OCOC(=O)[C@@H]1N2C(=O)[C@@H](N=CN3CCCCCC3)[C@H]2SC1(C)C`: the LD50 is 9500 mg/kg.
Consider `CC(C)=CCCC(C)CCO` (stereo not drawn), for which the LD50 is 3450 mg/kg.
For the compound `Nc1c(/N=N/c2ccc(-c3ccc(/N=N/c4cc(S(=O)(=O)O)c5ccccc5c4N)cc3)cc2)cc(S(=O)(=O)O)c2ccccc12`, the LD50 is 15200 mg/kg.
With `COC1=C(OC)C(=O)C(CCCCCCCCCCO)=C(C)C1=O`, the LD50 is 10000 mg/kg.
Regarding `COc1ccc2cc(C(C)C(=O)OCCOCCO)ccc2c1` (stereo not drawn), the LD50 is 638 mg/kg.
For the compound `O=COCc1ccccc1`, the LD50 was 1400 mg/kg.
Consider `CCCCN(N=O)C(N)=O`, for which the LD50 was 400 mg/kg.
On to `Clc1cc2c(c(Cl)c1Cl)Oc1cc(Cl)c(Cl)c(Cl)c1O2`, for which the LD50 is 0.887 mg/kg.
`O=C(O)C(F)(F)C(F)(F)C(F)(F)C(F)(F)C(F)(F)C(F)F`: the LD50 was 1440 mg/kg.
`c1ccc(N(c2ccccc2)c2ccccc2)cc1`: the LD50 is 3200 mg/kg.
Consider `CC(=O)OCC[N+](C)(C)C`, for which the LD50 was 2500 mg/kg.
Turning to `CC(C(=O)O)c1ccc2c(c1)[nH]c1ccc(Cl)cc12` (stereo not drawn), the LD50 was 74 mg/kg.
Turning to `N=C(N)NCCCCCCCCNCCCCCCCCNC(=N)N`, the LD50 is 300 mg/kg.
For the compound `COc1ccc2cc(CCC(C)=O)ccc2c1`, the 50% lethal dose (LD50) was 3880 mg/kg.
`COCCc1ccc(OCC(O)CNC(C)C)cc1` (stereo not drawn): the LD50 is 3470 mg/kg.
On to `CN(C)CC(=O)N/N=C/c1c(Cl)nc2sccn12`, for which the LD50 was 1500 mg/kg.
Turning to `CCOc1ccc(N2CC(C(=O)N3CCNCC3)CC2=O)cc1` (stereo not drawn), the LD50 is 550 mg/kg.
With `CSC(C)(C)C=NO`, the LD50 is 742 mg/kg.
Turning to `O=C(C=Cc1ccccc1)OCC=Cc1ccccc1`, the LD50 is 4200 mg/kg.
Consider `N#CSc1ccc(C(=O)O)cc1`, for which the 50% lethal dose (LD50) is 83 mg/kg.
For the compound `O=NN1CC=CCO1`, the LD50 is 900 mg/kg.
Regarding `CCCCCCOC(=O)c1ccccc1C(=O)OCCCCCC`, the LD50 was 29600 mg/kg.
For `C[N+](C)(C)CCOC(N)=O`, the LD50 was 40 mg/kg.
Turning to `O=C(O)c1cccc(Cl)c1Cl`, the LD50 was 300 mg/kg.
For `CCCCCCOCC(O)CO` (stereo not drawn), the LD50 is 2500 mg/kg.
Turning to `CCN(CC)NNCCCO`, the LD50 was 3730 mg/kg.
In the case of `O=C(NP(=O)(N1CC1)N1CC1)c1ccccc1`, the LD50 is 50 mg/kg.
For the compound `C=C(Cl)C#N`, the LD50 is 25 mg/kg.
Turning to `COc1ccc2c3c1O[C@H]1[C@H](N=[N+]=[N-])CC[C@H]4[C@@H](C2)N(C)CC[C@@]341`, the LD50 is 120 mg/kg.
In the case of `N#CCCN(CCO)c1ccccc1`, the LD50 was 3210 mg/kg.
For the compound `CCNC(=O)Cc1ccccc1`, the LD50 is 756 mg/kg.
`CN=C(O)O/N=C1\SCOC1C(C)C` (stereo not drawn): the 50% lethal dose (LD50) is 16 mg/kg.
Take `Clc1ccc(C(OCCN2CCOCC2)c2ccccc2)cc1` (stereo not drawn): the LD50 was 710 mg/kg.
As to `CCCn1c(C)cc(OP(=S)(OCC)OCC)cc1=O`, the LD50 was 9.75 mg/kg.
On to `C=CCc1ccc(O)c(OC)c1`, for which the LD50 is 1930 mg/kg.
`CNC(=O)Oc1cc(C(C)(C)C)cc(C(C)(C)C)c1`: the LD50 was 1800 mg/kg.
On to `O=C(O)Cc1sc(-c2ccccc2)nc1-c1ccc(Cl)cc1`, for which the LD50 was 409 mg/kg.
With `C=C(O)C(=O)O`, the LD50 was 10000 mg/kg.
On to `CC(=O)CNC(C)(C)Cc1ccccc1`, for which the LD50 is 225 mg/kg.
Consider `CCC(C)OC(C[n+]1ccccc1)c1cccc(Cl)c1` (stereo not drawn), for which the LD50 was 250 mg/kg.
Take `C[C@H]1[C@H](c2ccccc2)OCCN1C`: the LD50 is 455 mg/kg.
In the case of `CN(N=O)c1ccncc1`, the LD50 was 200 mg/kg.
Consider `CC(=O)OCCCc1ccccc1`, for which the LD50 is 4700 mg/kg.
For `COP(=S)(OC)SCn1nc(Cl)c(Cl)cc1=O`, the LD50 was 12000 mg/kg.
With `CNC(=O)ON=C1[C@@H](Cl)[C@@H]2C[C@H](C#N)[C@H]1C2` (relative stereo), the LD50 is 25 mg/kg.
Take `Nc1ccccc1-c1ccccc1`: the LD50 was 2340 mg/kg.
`c1ccc2[nH]ccc2c1`: the LD50 is 1000 mg/kg.
As to `CCC1(C)CC(=O)NC1=O` (stereo not drawn), the LD50 is 1820 mg/kg.
For the compound `COc1cc(C(O)C(C)NC(C)COc2ccccc2)ccc1O` (stereo not drawn), the LD50 was 1280 mg/kg.
For the compound `CCCCCCCCCCOC(=O)C[N+](C)(C)CCSCC[N+](C)(C)CC(=O)OCCCCCCCCCC`, the LD50 was 2660 mg/kg.
For `COP(=S)(OC)Oc1cc(C)c(Cl)cc1C(C)C`, the LD50 was 500 mg/kg.
Turning to `CC(C)CNCC(C)C`, the LD50 is 258 mg/kg.
`CCCCCC1=C(C)CCC1=O`: the LD50 was 2500 mg/kg.
`CN(N=Nc1ccccc1)N=Nc1ccccc1`: the LD50 was 212 mg/kg.
For `Clc1ccccc1CN1CCc2sccc2C1`, the LD50 is 1780 mg/kg.
Regarding `C=C(C)c1ccc(C(C)(C)N=C=O)cc1`, the LD50 was 4400 mg/kg.
For the compound `OCC(O)CCl` (stereo not drawn), the LD50 is 26 mg/kg.
For `C=C(OP(=O)(OC)OC)c1ccc(Cl)cc1Cl`, the LD50 is 2350 mg/kg.
With `CCOP(=S)(OCC)Oc1cc2ccccc2oc1=O`, the LD50 is 13 mg/kg.
`C=CC(C)NC(=S)NNC(=S)NC` (stereo not drawn): the LD50 was 1000 mg/kg.
On to `CCn1c(=O)c2ccccc2n(-c2cccc(C(F)(F)F)c2)c1=O`, for which the LD50 is 1500 mg/kg.
Regarding `ClC(Cl)(Cl)c1cccc(C(Cl)(Cl)Cl)c1`, the LD50 was 2920 mg/kg.
`OCCN(CCO)C1CCCCC1`: the median lethal dose (LD50) was 2600 mg/kg.
With `COc1ccccc1N1CCN(CC=Cc2ccc3c(c2)CCC(=O)N3)CC1`, the median lethal dose (LD50) is 500 mg/kg.
In the case of `CC(N)CNCCCO` (stereo not drawn), the LD50 is 5660 mg/kg.
As for `CC(C)OC(Cl)=C(Cl)C(Cl)=C(Cl)Cl`, the LD50 is 1210 mg/kg.
For the compound `CCOC(=O)C(SP(=O)(OC)OC)c1ccccc1` (stereo not drawn), the LD50 is 63 mg/kg.
In the case of `O=S(=O)(Oc1ccc(Cl)cc1)c1ccccc1`, the LD50 was 1350 mg/kg.
Regarding `Cc1nc2sccn2c1/C=N/NC(=O)CN(C)C`, the LD50 is 1500 mg/kg.
Regarding `CN1CCCN(C)C1=O`, the LD50 is 1770 mg/kg.
On to `O=[N+]([O-])c1cc(Br)cc2[nH]c(C(F)(F)F)nc12`, for which the LD50 was 1.23 mg/kg.
Regarding `Cc1ccc(S(=O)(=O)NN)cc1`, the LD50 was 283 mg/kg.
On to `CC(C)(C(=O)O)S(C)(=O)=O`, for which the LD50 is 5700 mg/kg.
As to `C=CBr`, the 50% lethal dose (LD50) is 500 mg/kg.
In the case of `CC(C)CCI`, the LD50 is 1420 mg/kg.
Regarding `CCC1(CCl)COC1`, the LD50 was 570 mg/kg.
In the case of `Fc1ccc([C@@H]2CCNC[C@H]2COc2ccc3c(c2)OCO3)cc1`, the LD50 was 415 mg/kg.
With `O=C1CN2CCOC2(c2ccccc2F)c2cc(Br)ccc2N1` (stereo not drawn), the 50% lethal dose (LD50) was 2860 mg/kg.
For `Cc1c(Cl)cc2[nH]c(C(F)(F)F)nc2c1[N+](=O)[O-]`, the LD50 was 31.4 mg/kg.
Consider `CCC1OC1(C)C` (stereo not drawn), for which the LD50 was 3500 mg/kg.
Take `COC12C(COC(N)=O)C3=C(C(=O)C(C)=C(N)C3=O)N1CC1C2N1C` (stereo not drawn): the LD50 is 68 mg/kg.
As to `Clc1ccc(COC(Cn2ccnc2)c2ccc(Cl)cc2Cl)c(Cl)c1` (stereo not drawn), the LD50 was 920 mg/kg and 550 mg/kg.
